Experimental data as given in patent EP0643699B1, “6-(2-HYDROXYETHYLAMINOALKYL)-5,11-DIOXO-5,6-DIHYDRO-11H- INDENO[1,2-C]ISOQUINOLINES AND THEIR USE AS ANTINEOPLASTIC AGENTS” (priority 1991, dated 1993).
Marks after values point to notes of the source that are not given here.

Tested on: Sa37 sarcoma
Test: Antitumour activity in S37 ascites sarcoma bearing mice (tumour weight, total ascitocrit, survival)
Assay type: in vivo, mice H
From the text: The antineoplastic activity of the compounds of the invention has been investigated testing the compounds of the chemical group "in vivo" against experimental rodent tumors such as the solid form of Ehrlich tumour (STE, originally mammary adenocarcinoma), tumor HK (also transplantable originally mammary adenocarcinoma), Krebs' ascites tumour (Kr2), S37 ascites sarcoma, Nemeth-Keller lymphoma (NK), all maintained in mice H, Gardner lymphosarcoma (LsG, maintained in mice C3H), P388 and/or L1210 leukemia (maintained in DBA2 mice), B16 metastasizing melanocarcinoma (maintained in C57B1/6 mice) and Yoshida ascites reticulosarcoma (Y, maintained in Wistar rats) in experiments according to Jelinek, V. [Neoplasma 12, 469 (1965); ibid 7, 146 (1960)] and in "in vitro" experiments using radioactive precursors of nucleic acids and proteins according to Miko, M. et al. [Cancer Res 39, 4242 (1979); Neoplasma 26, 449 (1979); ibid 16, 161 (1969)] with minor modifications [Mattern, J.: Studies on the Drug Sensitivity of Short Term Cultured Tumour Cell Suspensions. In "Human Tumours in Short Term Culture" (Dendy, P.P. ed.), p.301, Academic Press 1976]. The Cox's proportional-hazards model was used for survival evaluation and optimal dose calculation according to Carter, V.H. et al. [cf Cancer Res. 42, 2963 (1982)].
Eighty female mice H weighing approximately 20 g were divided into four groups: one control group and three experimental groups of 20 animal each. A lethal dose of the Sa37 sarcoma ascitic fluid was implanted intraperitoneally to all the animals. The animals of test groups were treated using the compound suspended in water. The suspension contained the substance in such a concentration that dose 0.6, 0.4 and/or 0.2ml of the suspension p.o. was equal to dose 240, 160 and/or 80 mg/kg p.o., respectively. The drug was administered to the experimental animals once, a day after tumour transplantation. On the tenth day after the tumour transplantation, half of the animals in each group were killed by ether anaesthesia, ascites were emptied after laparotomia and the tumour weight was assessed in all animals from the weight difference before and after laparotomia and ascites removing. In ascites fluid the volume of tumour cell fraction was determined. The remaining animals were left to monitor the time of death and survival time was followed. […] It was also observed that the treated animals survived longer than untreated control animals. […] The results of the experiment are summarized in the following table: Antitumour activity of 6-[2-(2-hydroxyethyl)aminoethyl]5,11-dioxo-5,6-dihydro-11H-indeno[1,2-c]isoquinoline (the substance I, X=2) in S37 sarcoma bearing mice.
In an analogous experiment carried out on the animals with implanted Sa37 sarcoma the substance I (X=2) was administered in seven daily doses, and the substance I (X=3) in four days. The results of the experiment are summarized in the following table: Antitumour activity of 6-[2-(2-hydroxyethyl)aminoethyl]5,11-dioxo-5,6-dihydro-11H-indeno[1,2-c]isoquinoline (the substance I, X=2) and 6-[3-(2-hydroxyethyl)aminopropyl]5,11-dioxo-5,6-dihydro-11H-indeno[1,2-c]isoquinoline (the substance I, X=3) in S37 bearing mice.
In an experiment carried out on the animals with implanted Sa37 sarcoma the substance I (X=0) was administered in eight daily doses (analogously as in example 6).

[1] = 10 mg/kg p.o., seven daily doses
[2] = 20 mg/kg p.o., seven daily doses
[3] = 30 mg/kg p.o., seven daily doses
[4] = 80 mg/kg p.o. once, a day after tumour transplantation, assessed on the tenth day
[5] = 160 mg/kg p.o. once, a day after tumour transplantation, assessed on the tenth day
[6] = 240 mg/kg p.o. once, a day after tumour transplantation, assessed on the tenth day

In the case of `O=C1c2ccccc2-c2c1c1ccccc1c(=O)n2CCNCCO` [I (X=2), 6-[2-(2-hydroxyethyl)aminoethyl]-5,11-dioxo-5,6-dihydro-11H-indeno[1,2-c]isoquinoline], the “Survival time (T/C, %)” value [1] is reported as 129%, the “Total ascitocrit (T/C, %)” value [1] is reported as 73^b) % and the “Tumour weight (T/C, %)” value [1] is reported as 66^b) %. For the same compound, the “Survival time (T/C, %)” value [2] was 129^a) %, the “Total ascitocrit (T/C, %)” value [2] was 73^a) % and the “Tumour weight (T/C, %)” value [2] was 64^b) %. The “Survival time (T/C, %)” value [3] was 86%, the “Total ascitocrit (T/C, %)” value [3] was 40^b) % and the “Tumour weight (T/C, %)” value [3] was 32^b) %. The “Survival time (T/C, %)” value (80 mg/kg p.o. once, a day after tumour transplantation) was 107%, the “Total ascitocrit (T/C, %)” value [4] was 64^c) % and the “Tumour weight (T/C, %)” value [4] was 61^c) %. For the same compound, the “Survival time (T/C, %)” value (160 mg/kg p.o. once, a day after tumour transplantation) was 111%, the “Total ascitocrit (T/C, %)” value [5] was 65^c) % and the “Tumour weight (T/C, %)” value [5] was 59^c) %. The “Survival time (T/C, %)” value (240 mg/kg p.o. once, a day after tumour transplantation) was 119^b) %, the “Total ascitocrit (T/C, %)” value [6] was 47^c) % and the “Tumour weight (T/C, %)” value [6] was 42^c) %.
